Assays:
[1] = biological target: 5-HT4 receptor (Rattus norvegicus, UniProt Q62758); experiment: cell-based; conditions: rat esophagus tunica muscularis mucosae contracted with carbachol (3 μM); tissues from 5 rats; 37° C.; read-out: EC50 values for agonists at this 5-HT4 receptor
Method: Agonist activity was determined utilizing relaxation of carbachol-contracted rat tunica muscularis mucosae. One 2 cm segment of intrathoracic esophagus proximal to the diaphragm was removed from male rats, weighing approximately 300 gm, and the outer muscle layers removed. The inner tunica muscularis mucosa was mounted under 0.2-0.3 g of tension in a tissue bath containing oxygenated Tyrode's solution at 37° C. […] Following a 30 min equilibrium period, tissues were isometrically contracted with carbachol (3 μM) to obtain a tonic contraction. A stable plateau was obtained within 20 min when test compound was added cumulatively to relax the muscle strip. EC50 values were obtained for each agonist in tissues from 5 rats.

[2] = biological target: T1, 5-HT3 receptor (Rattus norvegicus, UniProt P35563); experiment: Serotonin (5-HT3) radioligand receptor binding assay ([3H]-GR65630, rat brain cortex membranes)
T1 construct: Brain cortices are obtained from male rats and a membrane fraction prepared by standard techniques; from tissue; host or cells: rat brain cortex membranes
T1 sequence (P35563 24-483): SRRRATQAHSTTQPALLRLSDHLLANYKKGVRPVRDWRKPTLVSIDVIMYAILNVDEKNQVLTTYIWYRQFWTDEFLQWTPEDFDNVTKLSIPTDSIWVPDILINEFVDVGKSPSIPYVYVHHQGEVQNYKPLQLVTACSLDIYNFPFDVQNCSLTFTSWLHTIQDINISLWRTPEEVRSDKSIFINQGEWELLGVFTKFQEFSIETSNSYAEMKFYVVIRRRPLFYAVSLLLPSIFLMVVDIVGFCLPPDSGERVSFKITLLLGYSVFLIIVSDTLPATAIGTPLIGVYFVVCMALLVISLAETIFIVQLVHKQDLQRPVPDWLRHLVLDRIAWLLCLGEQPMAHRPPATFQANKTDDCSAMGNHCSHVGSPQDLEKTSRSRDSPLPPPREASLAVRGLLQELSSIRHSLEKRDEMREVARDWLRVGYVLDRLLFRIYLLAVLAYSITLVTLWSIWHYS
Method: 5-HT3 antagonism can be determined by the radioligand receptor binding assay as described herein and in the in vivo Bezold-Jarisch reflex procedure.
GR65630 binds to the 5-HT3 receptor. Brain cortices are obtained from male rats and a membrane fraction prepared by standard techniques. 0.04 mg of membrane prep is incubated with 0.2 nM [^3 H]-GR656630 for 60 minutes at 22° C. […] Membranes are filtered and washed 3 times and the filters are counted to determine [3H]-GR65630 specifically bound.*
Kilpatrick G. J., Jones B. J. and Tyers M. B. Identification and distribution of 5-HT3 receptors in rat brain using radioligand binding. Nature, 330: 746-748, 1987.

Chain of 5-HT4 receptor (Q62758 whole entry): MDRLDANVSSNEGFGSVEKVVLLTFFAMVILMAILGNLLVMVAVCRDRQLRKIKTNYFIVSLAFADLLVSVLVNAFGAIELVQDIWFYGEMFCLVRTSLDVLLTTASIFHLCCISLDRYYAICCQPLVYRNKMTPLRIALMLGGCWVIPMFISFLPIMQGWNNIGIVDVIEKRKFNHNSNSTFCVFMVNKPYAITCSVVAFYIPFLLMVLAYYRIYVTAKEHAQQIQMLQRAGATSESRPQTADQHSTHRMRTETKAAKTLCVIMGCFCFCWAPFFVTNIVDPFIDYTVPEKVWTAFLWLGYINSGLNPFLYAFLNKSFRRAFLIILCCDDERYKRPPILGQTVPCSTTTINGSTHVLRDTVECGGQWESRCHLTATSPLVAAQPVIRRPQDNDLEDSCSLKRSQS

Row | EC50 [1] [nM] | SMILES | also measured
1 | 422 | COc1cc(N)c(Cl)cc1C(=O)NCC12CCCN1CCC2 [Example 1, 4-amino-5-chloro-2-methoxy-N-(tetrahydro-1H-pyrrolizin-7a (5H) -ylmethyl)benzamide] | 
2 | 216 | COc1cc(N)c(Cl)cc1C(=O)NCC12CC3CN(CC3C1)C2 [Example 9, 4-amino-5-chloro-N-[(hexahydro-2,5β-methano-1H-3aR,3aα,6aα-cyclopenta[c]pyrrol-5-yl)methyl]-2-methoxybenzamide] | 
3 |  | Cc1nc[nH]c1CCC(=O)c1cn(C)c2ccccc12 [GR65630] | % Specific Binding ([2]; radioligand, non-specific binding estimated in the presence of 1 uM ICS 205-930): 70%
4 |  | COc1ccc2[nH]cc(C3=CCNCC3)c2c1 [RU24969] | Ki [2]: 1.85 nM

Reference: patent US5516782A, “New meso-azacyclic aromatic acid amides and esters as novel serotonergic agents” (G. D. Searle & Co., priority 1995, dated 1996)
